Laboratory results from patent US7951548B2, “IL-13 production inhibitor” (Takeda Pharmaceutical Company Limited, priority 2005, dated 2011).

What was measured:
Type in all cases: cell-based
[1] = target: T1, GPR34 (Homo sapiens, UniProt Q9UPC5); experiment: DNA synthesis activity (tritium-labeled thymidine) of human GPR34-expressed CHO cells; settings: serum-free medium, 16 hours
T1 construct: expressed in transfected cells
Description: The human GPR34-expressed CHO cells prepared by the procedure as described in REFERENCE EXAMPLE 1 were plated at a cell density of 20,000 cells/well on a 96-well plate charged with serum-free medium. The cells were allowed to stand for 4 hours, 0, 0.1, 0.3, 1 and 3 μM lysoPS was added thereto, respectively, followed by incubation for 16 hours. After 1 μCi/well of tritium-labeled thymidine (Amersham, TRK120) was added to achieve labeling for 4 hours, fixation was performed in 10% trichloroacetic acid. Solubilization in an aqueous sodium hydroxide solution was followed by neutralization in trichloroacetic acid to collect DNA with a cell harvester. The radioactivity on the filter was taken as DNA synthesis activity.

[2] = system: mouse bone marrow-derived mast cells; experiment: MAPK activation: phosphorylation of ERK1/2 in mouse bone marrow-derived mast cells (BMMC); settings: BMMC
Description: BMMC was established by collecting bone marrow fluid from the femur of male BALB/c mouse (Japan SLC), rinsing in RPMI1640 (Nikken Bio Medical Laboratory) and then incubating in a medium (RPMI1640, 50% WEHI-3 culture supernatant, 10% FBS (GIBCO), penicillin/streptomycin (BIOWHITTAKER), Non-Essential amino acids (GIBCO)) for 4 weeks. The cells were incubated in a CO2 incubator immediately before assay. Pertussis toxin (hereinafter PTX) was added to the cells in a final concentration of 0.1 μg/mL 4 hours before assay. BMMC was washed in ice-chilled assay buffer (Tyrode Buffer, 0.01% fatty acid free-BSA (SIGMA), 1 mM CaCl2, 1 mM MgCl2), and suspended in 2×10^6 cells/ml. The suspension was dispensed in a 1.5 mL tube followed by preincubation for 15 minutes at 37° C. The lysoPS solution and A23187 solution (Wako Pure Chemicals) as a positive control were added in equimolar amounts. After incubation at 37° C., the reaction was terminated by quenching. The cells were precipitated by centrifugation and the assay buffer was aspirated. After washing in PBS, 1×SDS sample buffer/DTT was added to the cells to lyse the cells. After ultrasonication for 15 seconds, the sample was heated at 95° C. for 5 minutes followed by quenching.
Detection by SDS-PAGE and western blotting were performed as follows. After separation using 10% Bis-Tris gel (Invitrogen), the gel was transferred to Immuno-Blot PVDF Membrane (BIO-RAD). The membrane was blocked with Block Ace (Dai-Nippon Pharmaceutical) and incubated at 4° C. overnight with a primary antibody (Phospho-p42/p44 MAP Kinase (Thr202/Thr204) Antibody (CST) or p42/p44 MAP Kinase Antibody (CST)) and further incubated at room temperature for an hour using a secondary antibody (Anti-rabbit IgG (CST)). The membrane after the antibody reaction was visualized by chemiluminescence using ECL PLUS (Amersham Biosciences). Detection and image analysis were performed using LAS1000 (FUJI FILM).

[3] = target: T1, GPR34; experiment: Intracellular cAMP production inhibitory activity on GPR34-expressed CHO cells (forskolin stimulated); settings: phosphatidylserine in a higher concentration
Description: The GPR34-expressed CHO cells prepared in (1-2) described above and selected in (1-3) described above were plated on a 24-well plate in 6×10^4 cells/well followed by incubation for 48 hours. The cells were washed with αMEM medium (pH 7.5) containing 0.2 mM 3-isobutylmethylxanthine, 0.05% BSA and 20 mM HEPES (hereinafter αMEM medium (pH 7.5) containing 0.2 mM 3-isobutylmethylxanthine, 0.05% BSA and 20 mM HEPES is referred to as the reaction buffer). Thereafter, 0.5 mL of the reaction buffer was added and the mixture was kept warm for 30 minutes in an incubator. The reaction buffer was removed and 0.25 mL of fresh reaction buffer was replenished to the cells. Then, 0.25 mL of the reaction buffer containing a sample and 2 μM forskolin was added to the cells, followed by reacting at 37° C. for 30 minutes. The reaction solution was removed and 0.5 mL of the cell lysis solution attached to cAMP EIA kit (Applied Biosystems) to extract cAMP in the cells. The cAMP level in the extract was quantified using the same kit. Based on this measurement data, the cAMP production inhibitory activity was calculated based on the equation shown below and expressed in terms of percentage to the control group. […]

[4] = system: rat primary culture microglial cells (PMGC); experiment: Phosphorylation of ERK1/2 in PMGC; settings: lysoPS
[5] = system: rat primary culture microglial cells (PMGC); experiment: Expression of cytokine genes in activated PMGC (TaqMan PCR); settings: lysoPS 5 μM, LPS 1 μg/ml, IFN-α 1 ng/ml
Description: In order to examine the action of lysoPS on the activation of microglia, actions induced by the addition of lysoPS in PMGC activated by LPS stimulation was examined in the presence of IFN-α. PMGC, which was prepared from the brain of rat of one day old on the preceding day, was plated on a 24-well plate (Falcon 353047) at 50000 cells/well, and IFN-α (1 ng/ml, Biovision) was added 6 hours after. On the following day, lysoPS (5 μM) was added upon stimulation by LPS (1 μg/ml), and comparison was made between the presence and absence of lysoPS if cytokine production was affected. RNA was prepared as in the procedure described in EXAMPLE 4 for 2 and 8 hours after addition or without addition of LPS and lysoPS (5 μM). The sequencing information of the primers, probe and standard used for TaqMan are as described above. The cytokine production was compared by TaqMan PCR in terms of changes in expression levels of cytokine genes.

T1 sequence (Q9UPC5 whole entry): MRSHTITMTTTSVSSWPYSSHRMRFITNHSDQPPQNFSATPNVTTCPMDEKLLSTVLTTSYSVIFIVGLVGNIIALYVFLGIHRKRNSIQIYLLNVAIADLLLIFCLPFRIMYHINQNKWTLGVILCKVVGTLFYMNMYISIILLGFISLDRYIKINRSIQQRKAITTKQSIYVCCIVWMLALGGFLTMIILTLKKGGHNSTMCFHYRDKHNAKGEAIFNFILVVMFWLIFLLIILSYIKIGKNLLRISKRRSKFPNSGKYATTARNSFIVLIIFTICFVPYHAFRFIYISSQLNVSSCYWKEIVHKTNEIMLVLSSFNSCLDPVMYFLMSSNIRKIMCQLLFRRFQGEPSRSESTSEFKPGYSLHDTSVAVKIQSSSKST

Substance: lysophosphatidylserine [lysoPS]
- DNA synthesis activity, increase ([1]; 0.1 μM lysoPS): 1.1 times
- DNA synthesis activity, increase ([1]; 0.3 μM lysoPS): 1.2 times
- DNA synthesis activity, increase ([1]; 1 μM lysoPS): 2.0 times
- DNA synthesis activity, increase ([1]; 3 μM lysoPS): 3.2 times
- phosphorylation of ERK1/2 30 minutes after the stimulation [2]: the phosphorylation was observed
- time of maximum response of ERK1/2 phosphorylation after the stimulation [2]: about 2 minutes
- cAMP production inhibitory activity [3]: marked activities
- phosphorylation of ERK1/2 [4]: also noted in PMGC
- expression of inflammatory cytokine IL-6 ([5]; 2 hours after the addition): tendency to suppress the expression
- expression of inflammatory cytokine TNF-α ([5]; 2 hours after the addition): tendency to suppress the expression
- expression of anti-inflammatory cytokine IL-10 ([5]; 8 hours after): tendency to increase its expression
